The values that follow come from ChEMBL document CHEMBL5678818, “Discovery of potent SOS1 inhibitors that block RAS activation via disruption of the RAS-SOS1 interaction” (Proc Natl Acad Sci U S A, 2019).

Test [1] has as its target T1, Aurora kinase A (Homo sapiens) (UniProt O14965).
T1 sequence (whole entry): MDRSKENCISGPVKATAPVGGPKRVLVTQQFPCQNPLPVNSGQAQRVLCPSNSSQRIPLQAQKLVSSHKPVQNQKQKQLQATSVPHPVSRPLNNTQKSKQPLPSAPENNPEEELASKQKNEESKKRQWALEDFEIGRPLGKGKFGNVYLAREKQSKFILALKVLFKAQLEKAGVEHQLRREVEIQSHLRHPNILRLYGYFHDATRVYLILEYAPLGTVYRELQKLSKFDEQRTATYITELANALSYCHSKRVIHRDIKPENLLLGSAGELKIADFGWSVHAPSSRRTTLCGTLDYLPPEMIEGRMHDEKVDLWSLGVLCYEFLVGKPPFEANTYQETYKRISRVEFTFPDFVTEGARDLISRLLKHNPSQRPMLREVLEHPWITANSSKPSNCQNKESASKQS
In words: Inhibition of AURKA (unknown origin) assessed as residual activity at 100 nM by KINOMEscan analysis relative to control.

Test [2] deals with T2, Ephrin type-B receptor 4 (Homo sapiens) (UniProt P54760).
T2 sequence (whole entry): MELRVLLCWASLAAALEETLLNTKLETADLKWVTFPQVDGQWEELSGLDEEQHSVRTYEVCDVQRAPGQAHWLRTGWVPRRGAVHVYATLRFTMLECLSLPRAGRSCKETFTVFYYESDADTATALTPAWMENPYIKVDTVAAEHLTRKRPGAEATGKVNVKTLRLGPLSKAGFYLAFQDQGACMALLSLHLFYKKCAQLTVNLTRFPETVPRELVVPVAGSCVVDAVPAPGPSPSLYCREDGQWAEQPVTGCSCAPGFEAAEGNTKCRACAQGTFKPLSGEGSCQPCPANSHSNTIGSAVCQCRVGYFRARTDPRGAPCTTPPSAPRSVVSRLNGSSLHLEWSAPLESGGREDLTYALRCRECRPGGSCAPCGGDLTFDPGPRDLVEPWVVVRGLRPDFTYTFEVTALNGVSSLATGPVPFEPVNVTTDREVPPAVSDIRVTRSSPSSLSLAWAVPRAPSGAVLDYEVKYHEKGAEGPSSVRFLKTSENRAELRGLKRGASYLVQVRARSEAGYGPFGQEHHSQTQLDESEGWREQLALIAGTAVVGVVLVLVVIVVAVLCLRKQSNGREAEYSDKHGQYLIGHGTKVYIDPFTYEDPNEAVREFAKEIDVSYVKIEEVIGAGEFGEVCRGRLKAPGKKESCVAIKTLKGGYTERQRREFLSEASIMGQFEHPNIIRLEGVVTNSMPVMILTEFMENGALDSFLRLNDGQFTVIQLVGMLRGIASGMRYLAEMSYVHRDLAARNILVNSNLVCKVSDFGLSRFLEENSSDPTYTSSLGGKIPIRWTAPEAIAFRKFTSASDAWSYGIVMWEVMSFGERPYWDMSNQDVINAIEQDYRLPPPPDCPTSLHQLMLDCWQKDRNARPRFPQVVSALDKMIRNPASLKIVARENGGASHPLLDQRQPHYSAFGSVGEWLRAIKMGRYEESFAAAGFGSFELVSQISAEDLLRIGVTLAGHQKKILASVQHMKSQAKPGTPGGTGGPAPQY
The test can be described thus: Inhibition of EPHB4 (unknown origin) assessed as residual activity at 100 nM by KINOMEscan analysis relative to control.

Test [3] addresses T3, Homeodomain-interacting protein kinase 4 (Homo sapiens) (UniProt Q8NE63).
T3 sequence (whole entry): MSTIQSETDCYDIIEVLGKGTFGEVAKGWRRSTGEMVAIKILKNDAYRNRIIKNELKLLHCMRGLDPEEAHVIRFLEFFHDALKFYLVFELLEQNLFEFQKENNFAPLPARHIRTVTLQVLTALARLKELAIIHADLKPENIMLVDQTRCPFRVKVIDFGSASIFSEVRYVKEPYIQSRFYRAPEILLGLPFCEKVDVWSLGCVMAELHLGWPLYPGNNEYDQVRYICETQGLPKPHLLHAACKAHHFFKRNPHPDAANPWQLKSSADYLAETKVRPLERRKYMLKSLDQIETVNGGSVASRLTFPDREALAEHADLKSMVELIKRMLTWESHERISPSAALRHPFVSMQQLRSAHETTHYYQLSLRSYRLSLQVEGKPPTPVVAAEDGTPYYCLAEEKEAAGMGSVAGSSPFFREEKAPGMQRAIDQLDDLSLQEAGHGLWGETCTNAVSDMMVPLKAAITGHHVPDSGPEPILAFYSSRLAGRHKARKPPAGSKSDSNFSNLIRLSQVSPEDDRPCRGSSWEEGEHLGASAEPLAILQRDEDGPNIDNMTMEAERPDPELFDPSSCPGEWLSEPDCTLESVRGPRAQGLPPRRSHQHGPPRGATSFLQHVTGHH
In words: Inhibition of HIPK4 (unknown origin) assessed as residual activity at 100 nM by KINOMEscan analysis relative to control.

For test [4], the target named is T4, Serine/threonine-protein kinase Nek11 (Homo sapiens) (UniProt Q8NG66).
T4 sequence (whole entry): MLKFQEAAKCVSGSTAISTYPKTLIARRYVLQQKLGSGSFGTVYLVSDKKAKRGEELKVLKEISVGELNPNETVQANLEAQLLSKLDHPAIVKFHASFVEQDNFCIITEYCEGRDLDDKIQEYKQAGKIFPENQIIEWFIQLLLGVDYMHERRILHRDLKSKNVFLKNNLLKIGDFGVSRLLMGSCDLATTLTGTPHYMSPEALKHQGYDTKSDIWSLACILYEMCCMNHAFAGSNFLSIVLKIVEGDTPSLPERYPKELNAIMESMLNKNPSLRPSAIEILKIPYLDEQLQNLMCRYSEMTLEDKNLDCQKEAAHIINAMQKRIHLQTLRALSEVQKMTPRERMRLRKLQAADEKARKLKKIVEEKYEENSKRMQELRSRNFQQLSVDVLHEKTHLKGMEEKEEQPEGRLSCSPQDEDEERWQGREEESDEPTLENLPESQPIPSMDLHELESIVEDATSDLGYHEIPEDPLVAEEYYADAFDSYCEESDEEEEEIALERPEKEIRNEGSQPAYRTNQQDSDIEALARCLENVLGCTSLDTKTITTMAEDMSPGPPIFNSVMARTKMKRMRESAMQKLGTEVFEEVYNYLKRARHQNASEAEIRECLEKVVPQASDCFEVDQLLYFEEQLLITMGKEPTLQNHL
In words: Inhibition of NEK11 (unknown origin) assessed as residual activity at 100 nM by KINOMEscan analysis relative to control.

For the next test, the species on record is Homo sapiens. In words: Inhibition of PIP5K1C (unknown origin) assessed as residual activity at 100 nM by KINOMEscan analysis relative to control.
For test [5], the system named is Proto-oncogene tyrosine-protein kinase receptor Ret (Homo sapiens), P07949 [M918T]. The test can be described thus: Inhibition of RET M918T mutant (unknown origin) assessed as residual activity at 100 nM by KINOMEscan analysis relative to control.
Test [6] concerns the target Rho-associated protein kinase 1 (Homo sapiens) (UniProt Q13464). In words: Inhibition of ROCK1 (unknown origin) assessed as residual activity at 100 nM by KINOMEscan analysis relative to control.

Proto-oncogene tyrosine-protein kinase receptor Ret (Homo sapiens), P07949 [M918T], sequence (P07949 whole entry M918T): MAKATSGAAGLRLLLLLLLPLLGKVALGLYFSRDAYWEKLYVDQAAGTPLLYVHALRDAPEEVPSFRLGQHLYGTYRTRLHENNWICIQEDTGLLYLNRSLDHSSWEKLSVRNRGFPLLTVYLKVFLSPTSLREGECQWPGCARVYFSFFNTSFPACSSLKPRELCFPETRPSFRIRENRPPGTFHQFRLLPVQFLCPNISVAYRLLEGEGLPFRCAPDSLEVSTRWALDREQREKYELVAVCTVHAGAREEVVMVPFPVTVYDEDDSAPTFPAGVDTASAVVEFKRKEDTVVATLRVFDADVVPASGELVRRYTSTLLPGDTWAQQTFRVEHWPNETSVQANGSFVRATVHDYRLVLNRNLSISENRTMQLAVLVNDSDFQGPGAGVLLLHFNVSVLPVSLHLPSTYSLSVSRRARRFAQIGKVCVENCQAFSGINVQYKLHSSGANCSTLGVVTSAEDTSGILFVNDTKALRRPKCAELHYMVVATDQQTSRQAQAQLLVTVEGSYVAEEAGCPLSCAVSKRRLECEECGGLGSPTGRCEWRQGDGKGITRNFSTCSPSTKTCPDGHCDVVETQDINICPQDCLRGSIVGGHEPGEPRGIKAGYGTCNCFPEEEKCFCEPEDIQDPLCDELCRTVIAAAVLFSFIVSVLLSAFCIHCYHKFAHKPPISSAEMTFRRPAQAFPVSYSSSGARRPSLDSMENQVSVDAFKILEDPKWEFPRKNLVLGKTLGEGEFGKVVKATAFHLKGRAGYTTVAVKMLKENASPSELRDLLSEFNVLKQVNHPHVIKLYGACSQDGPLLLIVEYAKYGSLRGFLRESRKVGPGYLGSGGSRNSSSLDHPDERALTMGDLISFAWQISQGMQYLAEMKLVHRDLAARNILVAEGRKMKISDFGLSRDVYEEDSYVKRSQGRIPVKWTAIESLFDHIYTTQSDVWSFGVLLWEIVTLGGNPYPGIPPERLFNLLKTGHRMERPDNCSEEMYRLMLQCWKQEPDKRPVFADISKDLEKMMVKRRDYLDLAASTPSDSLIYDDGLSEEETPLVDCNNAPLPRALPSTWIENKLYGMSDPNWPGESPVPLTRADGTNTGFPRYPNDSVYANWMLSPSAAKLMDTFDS
Rho-associated protein kinase 1 (Homo sapiens), sequence (Q13464 2-1354 limits assumed): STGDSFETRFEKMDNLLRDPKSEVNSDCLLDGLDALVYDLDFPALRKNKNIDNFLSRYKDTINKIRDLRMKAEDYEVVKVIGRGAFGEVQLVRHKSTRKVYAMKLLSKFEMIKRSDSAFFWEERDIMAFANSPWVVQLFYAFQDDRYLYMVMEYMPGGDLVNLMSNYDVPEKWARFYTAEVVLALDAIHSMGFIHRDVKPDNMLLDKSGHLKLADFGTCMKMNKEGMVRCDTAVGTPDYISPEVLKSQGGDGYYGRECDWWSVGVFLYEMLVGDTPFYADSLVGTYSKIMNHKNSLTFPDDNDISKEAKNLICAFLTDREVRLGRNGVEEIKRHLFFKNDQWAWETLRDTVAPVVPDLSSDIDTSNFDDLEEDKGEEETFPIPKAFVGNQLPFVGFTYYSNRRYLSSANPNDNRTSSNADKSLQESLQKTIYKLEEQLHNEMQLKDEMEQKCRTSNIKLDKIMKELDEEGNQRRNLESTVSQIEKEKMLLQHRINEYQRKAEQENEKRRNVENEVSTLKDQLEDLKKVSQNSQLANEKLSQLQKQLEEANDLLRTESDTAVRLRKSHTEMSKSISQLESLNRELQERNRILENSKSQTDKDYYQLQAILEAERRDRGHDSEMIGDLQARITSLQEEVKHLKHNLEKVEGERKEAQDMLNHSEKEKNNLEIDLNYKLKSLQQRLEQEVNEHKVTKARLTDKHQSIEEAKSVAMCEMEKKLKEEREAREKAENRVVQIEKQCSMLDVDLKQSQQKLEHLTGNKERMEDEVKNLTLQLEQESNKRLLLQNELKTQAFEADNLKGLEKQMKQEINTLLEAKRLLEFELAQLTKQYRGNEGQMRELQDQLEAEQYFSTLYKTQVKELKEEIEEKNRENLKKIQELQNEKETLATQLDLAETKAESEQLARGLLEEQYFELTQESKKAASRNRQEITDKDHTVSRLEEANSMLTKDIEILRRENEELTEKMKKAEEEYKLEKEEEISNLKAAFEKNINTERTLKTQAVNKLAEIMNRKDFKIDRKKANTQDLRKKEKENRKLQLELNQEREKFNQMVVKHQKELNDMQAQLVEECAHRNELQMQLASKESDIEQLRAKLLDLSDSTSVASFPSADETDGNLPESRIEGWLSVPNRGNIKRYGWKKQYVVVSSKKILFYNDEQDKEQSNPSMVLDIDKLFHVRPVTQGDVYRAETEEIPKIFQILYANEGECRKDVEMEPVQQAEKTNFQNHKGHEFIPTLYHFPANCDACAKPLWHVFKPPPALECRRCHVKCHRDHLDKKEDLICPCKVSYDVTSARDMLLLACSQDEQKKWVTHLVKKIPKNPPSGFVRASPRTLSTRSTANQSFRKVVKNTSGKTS

`COc1cc2ncnc(N[C@H](C)c3cccc4ccccc34)c2cc1OC`: the Activity in test [1] was found to be 100%; in test [2], 75%; in test [3], 100%; in test [4], 79%; in the test filed under Homo sapiens, 63%; in test [5] it was 99%. Moreover, the Activity in test [6] was 77%.
